Some test systems named below: SK-MEL-5; RPMI-8226; OVCAR-3; HCT-116; NCI/ADR-RES; SR; A549; Malme-3M; HCC 2998; A498; CAKI-1; NCI-H23; MDA-MB-435; ACHN; HOP-62; K562; SF-295; OVCAR-4; MOLT-4; CCRF-CEM.
Common to all, as to assay: DTP human tumour cell line panel, 48 h

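Cultured in 96-well plates, cells were exposed to test compound for 48 hours across five concentrations. GI50 = concentration required for 50% inhibition of growth.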 Calls of active or inactive are those of the source. No stated cut-off is given here; in the data, active = GI50 up to about 1.1 µM and inactive = higher.

Usually GI50 stands for the concentration that inhibits growth by half. As to `CC(C)c1nccn1Cc1ccc(Cl)cc1Cl`, the GI50 was 12 µM (inactive) in the experiment on SK-MEL-5; 16 µM (inactive) with RPMI-8226; 27.2 µM (inactive) in the experiment on OVCAR-3; 16.3 µM (inactive) in the experiment with HCT-116; 27 µM (inactive) in the experiment on NCI/ADR-RES; 44.4 µM (inactive) with SR. For the same molecule, the GI50 was 34.4 µM (inactive) in the experiment with A549; 41.2 µM (inactive) in the experiment on Malme-3M; 23.4 µM (inactive) in the experiment with HCC 2998; 55.5 µM (inactive) in the experiment with A498; 53.7 µM (inactive) in the experiment with CAKI-1; 27.4 µM (inactive) in the experiment on NCI-H23. The GI50 in the experiment with MDA-MB-435 was 49.7 µM (inactive); with ACHN, 83 µM (inactive); in the experiment with HOP-62 it was 66.7 µM (inactive); with K562, 79.1 µM (inactive); with SF-295, 14.5 µM (inactive); in the experiment on OVCAR-4, 52.5 µM (inactive).
`CC1(C)C2CCC1(C)[C@H](O)[C@H]2Nc1cc(C(F)(F)F)cc(C(F)(F)F)c1` (stereo not given in full): the GI50 was 5.38 µM (inactive) in the experiment with SK-MEL-5; 3.01 µM (inactive) with RPMI-8226; 2.24 µM (inactive) with OVCAR-3; 2.72 µM (inactive) in the experiment with HCT-116; 3.07 µM (inactive) in the experiment with NCI/ADR-RES; 2.95 µM (inactive) in the experiment on SR. Also, the GI50 with MOLT-4 is 2.19 µM (inactive); in the experiment with A549, 3.7 µM (inactive); in the experiment with Malme-3M, 3.27 µM (inactive); with HCC 2998, 3.38 µM (inactive); with A498, > 100 µM (inactive); in the experiment with CAKI-1, 3.76 µM (inactive). Moreover, the GI50 is 2.36 µM (inactive) in the experiment with NCI-H23; 3.42 µM (inactive) in the experiment on MDA-MB-435; > 100 µM (inactive) with ACHN; 5.48 µM (inactive) in the experiment on HOP-62; 2.79 µM (inactive) with K562; 2.37 µM (inactive) in the experiment on SF-295. Besides, in the experiment with OVCAR-4, the GI50 was 5.12 µM (inactive).
Regarding `CC1=CCC2CC1C(C(=O)c1c[nH]c3ccccc13)=NC2(C)C` (stereo not given), the GI50 was 37.6 µM (inactive) with SK-MEL-5; 22.4 µM (inactive) in the experiment on CCRF-CEM; 25.1 µM (inactive) with RPMI-8226; > 100 µM (inactive) with OVCAR-3; 50.4 µM (inactive) in the experiment on HCT-116; 59.3 µM (inactive) with NCI/ADR-RES. Also, the GI50 is 4.5 µM (inactive) in the experiment with SR; 22.9 µM (inactive) in the experiment with MOLT-4; 61 µM (inactive) in the experiment with A549; > 100 µM (inactive) in the experiment with Malme-3M; > 100 µM (inactive) with HCC 2998; > 100 µM (inactive) in the experiment with A498. Besides, the GI50 in the experiment with CAKI-1 was > 100 µM (inactive); in the experiment with NCI-H23, 87.7 µM (inactive); with MDA-MB-435 it was 47.8 µM (inactive); in the experiment with ACHN, 73.6 µM (inactive); with HOP-62, > 100 µM (inactive); with K562, 34 µM (inactive). In addition, the GI50 with OVCAR-4 is 40.3 µM (inactive).
With `C=C(Br)CN(CC(=C)Br)C(C)=O`, the GI50 in the experiment with SK-MEL-5, in the experiment on CCRF-CEM, in the experiment on RPMI-8226, in the experiment with OVCAR-3, in the experiment with HCT-116 and with NCI/ADR-RES was > 100 µM (inactive) throughout. The GI50 in the experiment with SR, in the experiment on MOLT-4, in the experiment with A549, in the experiment with Malme-3M, in the experiment on HCC 2998 and in the experiment on A498 was > 100 µM (inactive) in each case. Moreover, the GI50 with CAKI-1, in the experiment with NCI-H23, with MDA-MB-435, in the experiment on ACHN, in the experiment with HOP-62 and with K562 was > 100 µM (inactive) throughout. The GI50 with SF-295 and with OVCAR-4 was > 100 µM (inactive) each time.
On to `CC1(C)N=C(N)N=C(N)N1c1ccc(CCCCc2ccc(S(=O)(=O)F)cc2Cl)c(Cl)c1`, for which the GI50 is 1.05 µM (active) in the experiment on SK-MEL-5; 1.62 µM (inactive) in the experiment on CCRF-CEM; 3.05 µM (inactive) with RPMI-8226; 5.71 µM (inactive) in the experiment with OVCAR-3; 1.03 µM (active) in the experiment with HCT-116; 143 µM (inactive) in the experiment with NCI/ADR-RES. In addition, the concentration for 50% growth inhibition (GI50) is 0.207 µM (active) with SR; 0.995 µM (active) in the experiment on MOLT-4; 0.706 µM (active) in the experiment with A549; 4.05 µM (inactive) in the experiment on Malme-3M; 5.04 µM (inactive) in the experiment on HCC 2998; 37.2 µM (inactive) in the experiment on A498. In addition, the GI50 in the experiment on CAKI-1 was 9.55 µM (inactive); with NCI-H23 it was 4.07 µM (inactive); with MDA-MB-435, 3.95 µM (inactive); with ACHN, 2.22 µM (inactive); in the experiment on HOP-62 it was 9.35 µM (inactive); in the experiment with K562 it was 0.425 µM (active). Also, the values for the GI50 in the experiment with SF-295 and in the experiment on OVCAR-4 were 1.84 µM (inactive) and 37.2 µM (inactive), respectively.
As to `CN(C)c1ccc(C2SCC(=O)N2c2nc3cc4sc(N5C(=O)CSC5c5ccc(N(C)C)cc5)nc4cc3s2)cc1` (stereo not given), the GI50 in the experiment on SK-MEL-5 was 32 µM (inactive); in the experiment with CCRF-CEM, 3.41 µM (inactive); with RPMI-8226 it was 19.5 µM (inactive); with OVCAR-3 it was 48.3 µM (inactive); with HCT-116 it was 16 µM (inactive); in the experiment with NCI/ADR-RES it was > 23.3 µM (inactive). The GI50 in the experiment with SR is 6.62 µM (inactive); in the experiment on MOLT-4, 3.37 µM (inactive); in the experiment with A549, 7.71 µM (inactive); with Malme-3M it was > 100 µM (inactive); with HCC 2998, > 100 µM (inactive); with A498, 27.9 µM (inactive). The GI50 in the experiment with CAKI-1 is 8.49 µM (inactive); in the experiment on NCI-H23 it was 11.4 µM (inactive); in the experiment with MDA-MB-435, 28 µM (inactive); in the experiment with ACHN it was 28.1 µM (inactive); in the experiment on HOP-62, 56.6 µM (inactive); with K562, 40.9 µM (inactive). For the same molecule, the GI50 is 46.6 µM (inactive) in the experiment on SF-295 and 32.9 µM (inactive) in the experiment with OVCAR-4.
In the case of `Oc1ccc(-c2nc3ccc4ccccc4c3c3c2CCCC3)c(O)c1`, the GI50 was 9.68 µM (inactive) in the experiment on SK-MEL-5; 9.31 µM (inactive) in the experiment with RPMI-8226; 24.4 µM (inactive) with OVCAR-3; 10.7 µM (inactive) in the experiment on HCT-116; > 100 µM (inactive) in the experiment with NCI/ADR-RES; 20.2 µM (inactive) with SR. Also, the GI50 in the experiment with MOLT-4 was > 48.3 µM (inactive); in the experiment with A549, 23.2 µM (inactive); in the experiment on Malme-3M, 19.4 µM (inactive); in the experiment on HCC 2998, 36.5 µM (inactive); in the experiment with A498, 51.1 µM (inactive); in the experiment on CAKI-1, 42.5 µM (inactive). Moreover, the GI50 with NCI-H23 was 27.9 µM (inactive); with MDA-MB-435 it was 16.9 µM (inactive); in the experiment with ACHN, 28.8 µM (inactive); in the experiment with HOP-62, 57.7 µM (inactive); in the experiment on K562, > 100 µM (inactive); with SF-295 it was 37.2 µM (inactive). For the same molecule, in the experiment on OVCAR-4, the GI50 was 66.8 µM (inactive).
Consider `O=C(/C=C/c1ccccc1)Oc1cccc(O)c1`, for which the GI50 with SK-MEL-5 was 37.5 µM (inactive); with RPMI-8226 it was 9.55 µM (inactive); with OVCAR-3 it was 73.8 µM (inactive); in the experiment on HCT-116, 16.4 µM (inactive); in the experiment with NCI/ADR-RES, 42.8 µM (inactive); in the experiment on SR, 18.2 µM (inactive). Moreover, the GI50 in the experiment with MOLT-4 was 6.03 µM (inactive); in the experiment with A549, 46 µM (inactive); in the experiment with Malme-3M, 19.5 µM (inactive); in the experiment with HCC 2998, > 100 µM (inactive); with A498, > 100 µM (inactive); in the experiment on CAKI-1, 49.1 µM (inactive). Also, the GI50 in the experiment with NCI-H23 is 63.8 µM (inactive); in the experiment with MDA-MB-435 it was > 100 µM (inactive); with ACHN, > 100 µM (inactive); with HOP-62 it was 53.6 µM (inactive); with SF-295 it was 17.8 µM (inactive); in the experiment on OVCAR-4, 36.3 µM (inactive).
For `COc1ccc(NC2Oc3cc4c(cc3C(c3cc(OC)c(O)c(OC)c3)C2C)OCO4)cc1` (stereo not given), the GI50 in the experiment with SK-MEL-5 is 1.96 µM (inactive); in the experiment on RPMI-8226, 3.15 µM (inactive); in the experiment with OVCAR-3, 5.21 µM (inactive); with HCT-116 it was 4.43 µM (inactive); with NCI/ADR-RES, 5.66 µM (inactive); in the experiment on SR, 0.202 µM (active). In addition, the GI50 is 3.56 µM (inactive) in the experiment on A549; 5.38 µM (inactive) in the experiment on Malme-3M; 5.22 µM (inactive) with HCC 2998; 6.79 µM (inactive) in the experiment with A498; 10.4 µM (inactive) in the experiment on CAKI-1; 11.2 µM (inactive) with NCI-H23. For the same molecule, the GI50 is 0.406 µM (active) with MDA-MB-435; 4.01 µM (inactive) with ACHN; 2.69 µM (inactive) in the experiment on K562; 4.78 µM (inactive) with SF-295; 48.2 µM (inactive) with OVCAR-4.
In the case of `CC(C)/C(=N\[N+](C)(C)C)c1ccccc1`, the GI50 in the experiment on SK-MEL-5, in the experiment on CCRF-CEM, in the experiment with RPMI-8226, with OVCAR-3, with HCT-116 and with NCI/ADR-RES was > 100 µM (inactive) in each case. The GI50 in the experiment with SR, in the experiment on MOLT-4, with A549, in the experiment on Malme-3M, with HCC 2998 and with A498 was > 100 µM (inactive) throughout. In addition, the GI50 with CAKI-1, with NCI-H23, in the experiment on MDA-MB-435, with ACHN, with HOP-62 and with K562 was > 100 µM (inactive) each time. Also, the GI50 in the experiment on SF-295 and in the experiment with OVCAR-4 was > 100 µM (inactive) in each case.

Values taken from ChEMBL document CHEMBL1201862, “PubChem BioAssay data set” (2004).
